The values below come from patent publication US20250127773A1, “MODULATORS OF THE BETA-3 ADRENERGIC RECEPTOR USEFUL FOR THE TREATMENT OR PREVENTION OF HEART FAILURE” (Arena Pharmaceuticals, Inc., priority 2021, published 2025).

As a reminder, the IC50 is the concentration at which inhibition is half-maximal.

The assay addresses T1, Beta-3 Adrenergic Receptor (Homo sapiens, UniProt P13945).
T1 construct: expressed in transfected cells; host or cells: CHO-K1
In words: HTRF cAMP antagonist assay, IC50 determination. The following applies: CHO-K1 cells stably expressing recombinant receptor; vs isoproterenol at EC90; unit nM. In kind it is cell-based. Here is the method:
HTRF CAMP assays were performed according to manufacturer's instructions (Cisbio, CAMP Dynamic 2 Assay Kit; #62AM4PEJ). CHO-K1 cells stably expressing recombinant receptor were harvested and suspended in warm PBS to make a 300,000 cells/mL stock. This cell suspension was dispensed into 384 well assay plates (PerkinElmer ProxiPlate #6008280) at 5 μL per well (1500 cells/well) along with a CAMP standard curve.
Compounds were dissolved and serially diluted (5-fold) in DMSO to generate a 10-point dose response stock. […] After a brief incubation, 2.5 μL of isoproterenol stock, prepared at a concentration 4 times its EC90 at the receptor of interest, was added to the wells. The EC90 for isoproterenol, a beta-adrenergic agonist, was determined in separate experiments using standard methods to measure agonist potencies.
Following a 1-hour incubation at room temperature, 5 μL of CAMP-D2 Reagent diluted in Lysis Buffer was added to each well followed by 5 μL of Cryptate Reagent. Plates were further incubated at room temperature for 1 hour prior to reading. Time resolved fluorescence measurements were collected on a suitable, HTRF-capable plate reader.
Counts from the plate reader were fit to the CAMP standard curve on the assay plate in order to determine cAMP concentrations in each well, and these values were used to construct dose-response curves to obtain IC50 values.
(TR-FRET usually uses a lanthanide donor and a delayed reading to cut background.)

T1 sequence (P13945 whole entry): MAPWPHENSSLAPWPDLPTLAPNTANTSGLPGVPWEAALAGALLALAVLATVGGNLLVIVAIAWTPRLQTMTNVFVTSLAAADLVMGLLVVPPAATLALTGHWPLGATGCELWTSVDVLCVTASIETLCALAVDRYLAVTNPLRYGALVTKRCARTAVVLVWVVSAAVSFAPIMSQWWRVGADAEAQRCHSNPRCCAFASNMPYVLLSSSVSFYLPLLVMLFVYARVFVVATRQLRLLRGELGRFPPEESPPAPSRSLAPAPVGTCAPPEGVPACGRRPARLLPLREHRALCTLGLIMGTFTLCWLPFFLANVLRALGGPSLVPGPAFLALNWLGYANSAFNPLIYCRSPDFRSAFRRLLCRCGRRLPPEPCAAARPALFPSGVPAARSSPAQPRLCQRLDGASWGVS

With `CNS(=O)(=O)c1cccc(OCC(O)CNC2COC3(CCN(S(=O)(=O)c4cccc(-c5cnn(C)c5)c4)CC3)C2)c1` [Compound B216, 3-((S)-2-hydroxy-3-((S)-8-(3-(1-methyl-1H-pyrazol-4-yl)phenylsulfonyl)-1-oxa-8-azaspiro[4.5]decan-3-ylamino)propoxy)-N-20 methylbenzenesulfonamide], the IC50 stood at 57.7 nM. In the case of `CCOCCNS(=O)(=O)c1cccc(OCC(O)CNC2COC3(CCN(S(=O)(=O)c4ccc5ccccc5c4)CC3)C2)c1` [Compound B47, NV-(2-ethoxyethyl)-3-((2S)-2-hydroxy-3-(8-(naphthalen-2-ylsulfonyl)-1-oxa-8-azaspiro[4.5]decan-3-ylamino)propoxy)benzenesulfonamide] it was 155 nM. With `C[C@@H](NS(=O)(=O)c1cccc(OC[C@@H](O)CNC2COC3(CCN(S(=O)(=O)c4ccc5ccccc5c4)CC3)C2)c1)C1CC1` (stereo partly drawn) [Compound B93, N—((R)-1-cyclopropylethyl)-3-((2S)-2-hydroxy-3-(8-(naphthalen-2-ylsulfonyl)-1-oxa-8-25 azaspiro[4.5]decan-3-ylamino)propoxy)benzenesulfonamide] the figure was 112 nM.
